Like-named read-outs stand apart in the source and are kept apart here.
Tests used:
[1] = L-menthol given a strength of 100; cited from earlier work
[2] = Sensorial assessment of the bitter-sharp note of menthol in toothpaste by a panel of trained experts; assay type: in vivo; settings: for bitter-sharp note of the menthol / bitter perception: flavoring agent composition at 1.2 wt. % in toothpaste, usage conditions, expert panel
Description: The flavoring agent compositions obtained in this way were in each case incorporated into a respective standard toothpaste mass with a silicic acid basis in a concentration of 1.2 wt. %, in relation to the overall weight of the resulting toothpaste. The toothpastes were tested by a panel of sensorially trained experts under usage conditions. […] Without the use of anethole in the 2nd formulation the bitter-sharp note clearly emerged and the taste result was perceived overall to be unacceptable.
The flavoring agent compositions obtained in this way were in each case incorporated into a respective standard toothpaste mass with a silicic acid basis in a concentration of 1.2 wt. %, in relation to the overall weight of the resulting toothpaste. The toothpastes were tested by a panel of sensorially trained experts under usage conditions.
(§1) The toothpaste prepared in this way was tested by a panel of sensorially trained experts under usage conditions and compared with the toothpaste containing menthane carboxylic acid-N-(4-methoxyphenyl)-amide (WS-12) according to the 1st formulation of Example 1.2 in respect of the bitter perception and the duration of the cooling sensation of freshness.
The flavoring agent composition obtained in this way was incorporated into a standard toothpaste mass with a silicic acid base in a concentration of 1.2 wt. %, in relation to the overall weight of the resulting toothpaste. The toothpaste was tested by a panel of sensorially trained experts under usage conditions. […] Since through the use of menthane carboxylic acid-N-(4-methoxyphenyl)-amide (WS-12) in combination with the further flavoring agents with a log-Kow value in the range of 1.5-5 (I-menthyl acetate, 1,8-cineole, cinnamaldehyde, and abovementioned corresponding proportions of peppermint oils) a strong reduction in bitterness (of the menthol) was achieved, it was advantageously possible to dispense with the use of anethole to reduce the bitterness. Apart from a pleasant, distinctly fresh, long-lasting taste impression, the toothpaste was also able to impart a distinct, sweet cinnamon note as a result of the proportion of cinnamaldehyde.
The flavoring agent compositions according to Example 4.1 (for a teeth cleaning compound for comparative purposes) and Example 4.2 (for a teeth cleaning compound according to the invention) were in each case incorporated with a concentration of 1.2 wt. %, in relation to the overall weight of the resulting toothpaste into a respective toothpaste mass, containing a proportion of 65 wt. % sodium bicarbonate. […]

[3] = Sensorial assessment of intensity and duration of the cooling sensation of freshness of toothpaste; assay type: in vivo; settings: for intensity of coolness perceived: scale of 0 to 10, toothpaste with 1.2 wt. % flavoring composition of Example 1.2 containing 0.5 wt. % cooling agent; for duration of the cooling sensation of freshness: teeth cleaning compound / toothpaste, in words
Description: The proportion of menthane carboxylic acid-N-(4-methoxyphenyl)-amide (WS-12) in the 1st preparation of Example 1.2 was replaced by menthane-3-carboxylic acid-N-ethyl amide (WS-3).
The flavoring agent composition obtained was likewise incorporated into a standard toothpaste mass with a silicic acid base in a concentration of 1.2 wt. %, in relation to the overall weight of the resultant toothpaste.
as §1
The abscissa of FIG. 1 gives the time in minutes elapsing since cleaning of the teeth with the respective toothpaste.
The intensity of coolness perceived was rated on a scale of 0 to 10, with a value of “0” corresponding to the lowest or no intensity of coolness perceived and a value of “[…]” corresponding to the highest intensity of coolness perceived.

[4] = cited from earlier work
cold receptor TRPM8 = cold receptor TRPM8 (Homo sapiens, UniProt Q7Z2W7); settings: cited from earlier work
[5] = on the philtrum fold (upper lip); cited from earlier work
Solubility of WS-12 = assay type: physicochemical; settings: in words
Text: In order to bring about the masking of the menthol to a sufficient extent, WS-12 must be dissolved in the flavoring agent composition of the teeth cleaning compound in a sufficient quantity. Our own preliminary investigations have shown that in certain conventional flavoring agent compositions the solubility of the WS-12 is so low that only an insufficient masking (reduction or decrease) in the negative taste impressions of the menthol can be achieved.

Chain of cold receptor TRPM8 (Q7Z2W7 whole entry): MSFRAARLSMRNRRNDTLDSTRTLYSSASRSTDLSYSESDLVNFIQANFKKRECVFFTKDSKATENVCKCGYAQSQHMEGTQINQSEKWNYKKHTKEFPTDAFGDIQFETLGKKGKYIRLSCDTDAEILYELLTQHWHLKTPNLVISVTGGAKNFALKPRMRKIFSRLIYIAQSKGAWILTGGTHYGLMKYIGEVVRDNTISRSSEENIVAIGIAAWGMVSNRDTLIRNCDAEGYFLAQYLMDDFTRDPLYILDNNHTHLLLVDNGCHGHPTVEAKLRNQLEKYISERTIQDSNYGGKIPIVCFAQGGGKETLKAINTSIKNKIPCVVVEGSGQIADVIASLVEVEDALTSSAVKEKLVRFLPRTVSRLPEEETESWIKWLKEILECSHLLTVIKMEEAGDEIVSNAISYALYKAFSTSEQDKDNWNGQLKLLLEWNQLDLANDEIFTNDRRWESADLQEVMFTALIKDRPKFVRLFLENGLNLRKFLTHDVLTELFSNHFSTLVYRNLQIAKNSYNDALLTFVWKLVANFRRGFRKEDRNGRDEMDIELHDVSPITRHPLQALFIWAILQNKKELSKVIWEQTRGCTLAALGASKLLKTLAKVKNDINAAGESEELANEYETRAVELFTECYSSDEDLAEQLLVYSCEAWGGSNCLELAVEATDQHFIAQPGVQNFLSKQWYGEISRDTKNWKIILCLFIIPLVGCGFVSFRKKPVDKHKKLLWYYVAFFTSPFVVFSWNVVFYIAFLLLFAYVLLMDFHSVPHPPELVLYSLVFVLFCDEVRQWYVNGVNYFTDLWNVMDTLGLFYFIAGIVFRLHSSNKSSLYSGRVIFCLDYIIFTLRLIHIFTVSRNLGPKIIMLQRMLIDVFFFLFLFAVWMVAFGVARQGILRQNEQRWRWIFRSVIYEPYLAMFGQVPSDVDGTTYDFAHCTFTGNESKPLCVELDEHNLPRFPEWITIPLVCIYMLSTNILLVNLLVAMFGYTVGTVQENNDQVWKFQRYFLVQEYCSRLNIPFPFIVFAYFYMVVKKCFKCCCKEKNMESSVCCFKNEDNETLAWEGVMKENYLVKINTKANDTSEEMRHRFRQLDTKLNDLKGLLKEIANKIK

Structure (SMILES) | relative cooling strength compared with L-menthol [1] | bitter-sharp note of the menthol / bitter perception [2] | intensity of coolness perceived ([3]; after 35 minutes) | duration of the cooling sensation of freshness [3] | also measured
CCOC(=O)CNC(=O)C1CC(C)CCC1C(C)C [WS-5, N^α-(L-menthane carbonyl)-glycine ethyl ester] | 400 |  |  |  | 
CC(C)[C@@H]1CC[C@@H](C)C[C@H]1O [L-menthol] | 100 |  |  |  | 
CC=Cc1ccc(OC)cc1 [anethole] |  | neutralized |  |  | 
CCNC(=O)C1CC(C)CCC1C(C)C [WS-3, L-menthane carboxylic acid-N-ethyl amide] | 150 | hardly reduced | 0 | only for a relatively short time | reduction or masking of the bitterness or sharpness caused by menthol ([2]; addition to a conventional teeth cleaning compound containing menthol): did not lead to a significant reduction
COc1ccc(NC(=O)C2CC(C)CCC2C(C)C)cc1 (stereo not shown) [WS-12, menthane carboxylic acid-N-(4-methoxyphenyl)-amide] | 150 | significantly reduced | 3 | comparatively long-lasting | duration of cooling effect on the upper lip ([4]; remaining on the upper lip): up to half an hour; cooling effect compared with WS-5 ([4]; upper lip): lower than WS-5; effect on the TRPM8 cold receptor (cold receptor TRPM8): stronger effect than WS-5; effect on the TRPM8 cold receptor (cold receptor TRPM8; listed as menthane carboxylic acid-N-(4-methoxyphenyl)-amide): one of the strongest cooling substances; cooling duration [5]: under one hour; solubility (Solubility of WS-12): relatively not readily soluble; intensity of coolness perceived ([3]; after 60 minutes): ~1.5

Source: US9446267B2, “Products comprising a flavoring agent composition” (SYMRISE AG, priority 2009, dated 2016)
